From patent EP4635944A1, “2-AZABICYCLO[3.1.1]HEPTANE COMPOUND” (Daiichi Sankyo Company, Limited, priority 2022, dated 2024)

Columns and labels:
human OX2R = target: T1, human OX2R (Homo sapiens, UniProt O43614); test: Evaluation of OX2R agonist activity (intracellular calcium, CHO-K1 cells with forced expression of human OX2R); type: cell-based; details: CHO-K1 cells expressing human OX2R; 100% = 5 µM of the reference compound; read-out: hOX2R EC50
T1 construct: host or cells: CHO-K1 (Chinese Hamster Ovary K1)
T1 sequence (O43614 1-444): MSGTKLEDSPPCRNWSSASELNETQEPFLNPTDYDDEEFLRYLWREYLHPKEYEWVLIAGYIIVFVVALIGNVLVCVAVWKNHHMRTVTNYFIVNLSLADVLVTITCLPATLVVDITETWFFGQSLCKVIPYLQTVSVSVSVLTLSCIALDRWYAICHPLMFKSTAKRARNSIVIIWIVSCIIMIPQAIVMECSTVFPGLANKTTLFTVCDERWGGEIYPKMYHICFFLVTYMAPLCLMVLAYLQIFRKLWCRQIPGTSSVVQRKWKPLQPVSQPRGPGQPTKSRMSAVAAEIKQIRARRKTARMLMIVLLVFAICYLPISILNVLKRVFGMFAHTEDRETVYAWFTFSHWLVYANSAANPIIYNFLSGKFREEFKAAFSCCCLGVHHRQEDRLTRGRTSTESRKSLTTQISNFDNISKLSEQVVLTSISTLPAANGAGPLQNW
Method in brief: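 Cells seeded 7500/well, cultured 24 h, loaded with Fluo 4-AM (2.5 µg/mL final) plus probenecid for 30 min. Calcium response read as 480/540 nm excitation ratio; max–min signal 5–7 s after compound addition, normalized to buffer (0%) and 5 µM reference agonist (100%). EC50 from concentration series; 0.5% DMSO final.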

[1] = Evaluation of metabolic stability in human liver microsomes; type: in vitro ADME; details: for metabolic stability compared to the corresponding compounds that were not deuterated: human liver microsomes, 30 minutes, deuterated at specific positions; for Human metabolic stability Residual ratio (%): test compound 1 µM, human liver microsomes 0.5 mg/mL, 30 minutes at 37°C
Procedure: Evaluation of metabolic stability of OX2R agonist
The test compound (final concentration was 1 µM, dissolved in DMSO/acetonitrile = 1/99), pooled human liver microsomes (final concentration was 0.5 mg/mL), and sodium phosphate buffer (pH 7.4, final concentration was 100 mM) were admixed and preincubated at 37°C for 15 minutes. Thereafter, a mixed solution of glucose-6-phosphate (final concentration was 10 mM), glucose-6-phosphate dehydrogenase (final concentration was 1 U/mL), and magnesium chloride (final concentration was 3.3 mM) was added and a certain amount of the mixture was collected. Then, an acetonitrile/methanol mixed solution (75/25, v/v) containing a 4.5-fold volume of internal standard substances (final concentrations: phenacetin: 1 ng/mL, niflumic acid: 15 ng/mL, furosemide: 20 ng/mL) was added to stop the reaction (0 min sample). Subsequently, β-nicotinamide adenine dinucleotide phosphate (final concentration was 1 mM) was added, and after 30 minutes of incubation at 37°C, a certain amount of the mixture was collected, to which an acetonitrile/methanol mixed solution (75/25, v/v) containing a 4.5-fold volume of the internal standard substances was added to stop the reaction (30 min sample). For both samples, a portion of the supernatant after centrifugation (about 1200 × g, 4°C, 15 minutes) was injected into a liquid chromatograph tandem quadrupole mass spectrometer (LC-MS/MS) for analysis. The metabolic stability was evaluated by comparing the test compound/internal standard substance ratio of the 30 min sample with the 0 min sample and calculating the residual ratio of the test compound. […]

male C57BL/6J mice = test: Acceleration of locomotor activity (arousal effect in mice); type: in vivo; details: 10 mg/kg of body weight, orally; cumulative counts for one hour after administration; solvent administration group = 100%
Procedure: Acceleration of locomotor activity
Acceleration of locomotor activity in rodents can be an indicator of arousal. An experiment was carried out on the arousal effect of the test compound in mice, using the acceleration of locomotor activity as the indicator. For the experiment, male C57BL/6J mice (6 weeks old, THE JACKSON LABORATORY JAPAN, INC., 6 to 8 animals per group) were used. Mice were allowed to acclimate for 1 hour or longer in the rearing cage in the room where the measurement was to be performed, until the experiment. After the acclimation, the mice were placed in a locomotor activity measuring apparatus (the behavior analyzer SCANET-40 series, Melquest Ltd.) equipped with an infrared sensor to start the measurement. After 2 hours, either the solvent or the test compound (10 mg/kg of body weight) was orally administered, and the mice were immediately returned to the measuring apparatus and the measurement was further performed for 2 hours. The test compound was suspended in the 0.5 w/v% methylcellulose 400 solution (Wako Pure Chemical Industries, Ltd., Japan). The locomotor activity was counted every 5 minutes, and the cumulative counts for one hour after administration were calculated for each treatment group. The proportion of the locomotor activity of the test compound administration group to the solvent administration group whose locomotor activity was defined as 100% was calculated and shown in Table 2.

[2] = Evaluation of ERM production (GSH adduct detection in human liver microsomes); type: in vitro ADME; details: test compound 500 µM, human liver microsomes 2 mg/mL, GSH/SI-GSH, 37°C for 60 minutes; negative = no metabolite GSH adduct pair peak
Procedure: Evaluation of ERM production from OX2R agonist
The test compound (final concentration was 500 µM, dissolved in DMSO/acetonitrile = 1/9), pooled human liver microsomes (final concentration was 2 mg/mL), L-glutathione reduced (GSH, final concentration was 0.5 mM), potassium phosphate buffer (pH 7.4, final concentration was 100 mM), and stable isotope labeled GSH (SI-GSH, final concentration was 0.5 mM) were admixed and preincubated at 37°C for 3 minutes. Thereafter, a mixed solution of glucose-6-phosphate (final concentration was 25 mM), β-nicotinamide adenine dinucleotide phosphate (final concentration was 0.25 mM), glucose-6-phosphate dehydrogenase (final concentration was 2 U/mL), and magnesium chloride (final concentration was 10 mM) was added, and incubation was performed at 37°C for 60 minutes. After the incubation, the reaction was stopped by adding a 2-fold volume of acetonitrile. A portion of the supernatant after centrifugation (about 1200 × g, 4°C, 15 minutes) was injected into a liquid chromatograph quadrupole time-of-flight mass spectrometer (Q-Tof) for analysis. The mass number of metabolites, GSH adduct and SI-GSH adduct, predicted from the chemical structural formula of the test compound was calculated, and the presence of the corresponding peaks in the measurement sample was checked. Peaks with the same retention time and approximately equal peak area of the detected peaks of the metabolites, GSH adduct and SI-GSH adduct, were extracted as pair peaks. The presence of a pair peak determined to be a metabolite GSH adduct was considered positive for ERM production potential, whereas the absence of such a peak was considered negative for ERM production potential.

| SMILES | EC50 (human OX2R) | metabolic stability compared to the corresponding compounds that were not deuterated [1] | Human metabolic stability Residual ratio (%) [1] | Locomotor activity (%) (male C57BL/6J mice) | ERM production potential [2] |
| --- | --- | --- | --- | --- | --- |
| [2H]C([2H])([2H])[C@@]([2H])(O)C(=O)N1C2CC(F)(C2)[C@H](NS(C)(=O)=O)[C@@H]1Cc1cc(F)cc(-c2ccccc2)c1F [Example 87, N-{(3S,4R)-3-[(2,5-Difluoro[biphenyl]-3-yl)methyl]-5-fluoro-2-[(2R)-2-hydroxy(^2H4)propanoyl]-2-azabicyclo[3.1.1]heptan-4-yl}methanesulfonamide] | 30 nM | improved metabolic stability | 70% | 221% |  |
| [2H]C([2H])([2H])[C@@]([2H])(O)C(=O)N1C2CC(F)(C2)[C@H](NS(C)(=O)=O)[C@@H]1Cc1cccc(-c2ccccc2)c1F [Example 89, N-{(3S,4R)-5-Fluoro-3-[(2-fluoro[biphenyl]-3-yl)methyl]-2-[(2R)-2-hydroxy(^2H4)propanoyl]-2-azabicyclo[3.1.1]heptan-4-yl}methanesulfonamide] | 18 nM | improved metabolic stability | 75% | 412% |  |
| [2H][C@](C)(O)C(=O)N1C2CC(C2)[C@H](NS(C)(=O)=O)[C@@H]1Cc1cccc(-c2ccccc2)c1F [Example 97, N-{(3S,4S)-3-[(2-Fluoro[biphenyl]-3-yl)methyl]-2-[(2R)-2-hydroxy(2-^2H)propanoyl]-2-azabicyclo[3.1.1]heptan-4-yl}methanesulfonamide] | 21 nM | improved metabolic stability | 57% | 601% | negative |
| [2H][C@](C)(O)C(=O)N1C2CC(C2)[C@H](NS(C)(=O)=O)[C@@H]1Cc1cc(F)cc(-c2ccccc2)c1F [Example 98, N-{(3S,4S)-3-[(2,5-Difluoro[biphenyl]-3-yl)methyl]-2-[(2R)-2-hydroxy(2-^2H)propanoyl]-2-azabicyclo[3.1.1]heptan-4-yl}methanesulfonamide] | 36 nM | improved metabolic stability | 58% | 281% | negative |
